Results taken from patent US7153977B2, “Ligands and methods for preparing same” (National University of Singapore, priority 2000, dated 2006).
Like-named read-outs stand apart in the source and are kept apart here.

Assays:
[1] = target: T1, es transporter protein (Mus musculus, UniProt Q9JIM1); details: Lee et al. (1995), cited from earlier work
T1 sequence (Q9JIM1 1-460): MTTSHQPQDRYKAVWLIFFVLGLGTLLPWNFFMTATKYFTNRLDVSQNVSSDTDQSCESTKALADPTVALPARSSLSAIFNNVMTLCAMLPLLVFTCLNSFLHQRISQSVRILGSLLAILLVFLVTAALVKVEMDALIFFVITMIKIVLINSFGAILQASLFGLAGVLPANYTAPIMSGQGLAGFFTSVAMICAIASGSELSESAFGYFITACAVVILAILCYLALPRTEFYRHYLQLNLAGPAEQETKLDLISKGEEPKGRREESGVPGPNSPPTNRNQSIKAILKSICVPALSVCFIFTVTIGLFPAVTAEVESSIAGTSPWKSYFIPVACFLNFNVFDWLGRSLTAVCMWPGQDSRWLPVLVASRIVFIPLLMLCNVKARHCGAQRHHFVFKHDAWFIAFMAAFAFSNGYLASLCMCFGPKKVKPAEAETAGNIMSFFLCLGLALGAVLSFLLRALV

[2] = test system: es nucleoside transporter (human HL-60 promyelocytic leukemia plasma membranes); test: 3H-CrMCC binding to HL-60 plasma membranes
Protocol: This experiment was conducted to investigate the rate of ^3H-CrMCC binding to the unsealed plasma membranes of HL-60 cells. […] The binding reaction in FIG. 9 was terminated by membrane filtration method and the data were corrected for filter blanks.
It is important to confirm the binding of ^3H-CrMCC to the unsealed HL-60 plasma membranes is indeed irreversible. Purified unsealed HL-60 plasma membranes were incubated with 30 μM of ^3H-CrMCC for 10 min. After which the mixtures were diluted 20 folds and the diluted mixtures were sat at room temperature for various time intervals to allow dissociation to occur. […] The dissociation reaction shown in FIG. 10 was terminated by membrane filtration method and the data were corrected for filter blanks.
Purified unsealed HL-60 plasma membranes were incubated with 30 μM of ^3H-CrMCC for 5 min. The reaction mixture was then diluted 20-fold with reaction buffer of various pH values (pH 0.85 to 7.5). The dissociation reaction was terminated by membrane filtration method. The data were corrected for filter blanks.

[3] = test system: HL-60 cells; test: Growth of HL-60 cells; details: 3 days of exposure; for effect on HL-60 cell growth: concentrations as high as 100 μM
[4] = Storage stability of lyophilized CrMCC; assay type: physicochemical; details: −20° C. in a desiccator
[5] = Hydrophobicity on C18 reversed-phase column; assay type: physicochemical; details: compared with cytidine and SMCC
Protocol: N-Succinimidyl 4-[N-maleimidomethyl]cyclohexane-1-carboxylate (SMCC) and cytidine were dissolved in anhydrous dimethysulfoxide (DMSO) separately prior reaction. The reaction started when these two reagents were mixed at room temperature and shielded from light. The molar concentration ratio of SMCC:cytidine in the mixture was 0.10 M:0.15 M with pH 7.5–8.0 in the reaction system. Within 4 hrs, CrMCC was found in the reaction mixture and can be separated from cytidine and SMCC by a C18 reversed-phase column (Resource RPC, Pharmacia) operated on a HPLC (AKTA Purifier, Pharmacia) using the absorbance wavelength of 300 nm. Cytidine was eluted by 100% water and CrMCC and SMCC were eluted by 15% acetonitrile in water with the flow rate 1.5 ml/min. […] Formation of CrMCC reached its near maximum after 48 hrs of reaction between SMCC and cytidine at 22–24° C. (FIG. 4). The area under the peak was calculated using a computer program UNICORN (version 2.0).

[6] = target: T2, es nucleoside transporter (human HL-60 promyelocytic leukemia plasma membranes) (Homo sapiens, UniProt Q99808); test: 3H-NBMPR binding to HL-60 plasma membranes; design: Bmax of 3H-NBMPR binding in presence of CrMCC: unit not given here; details: for IC50: 5 min pretreatment, 5 nM 3H-NBMPR 30 min, read-out: IC50 of inhibition of specific 3H-NBMPR binding
T2 sequence (Q99808 1-456): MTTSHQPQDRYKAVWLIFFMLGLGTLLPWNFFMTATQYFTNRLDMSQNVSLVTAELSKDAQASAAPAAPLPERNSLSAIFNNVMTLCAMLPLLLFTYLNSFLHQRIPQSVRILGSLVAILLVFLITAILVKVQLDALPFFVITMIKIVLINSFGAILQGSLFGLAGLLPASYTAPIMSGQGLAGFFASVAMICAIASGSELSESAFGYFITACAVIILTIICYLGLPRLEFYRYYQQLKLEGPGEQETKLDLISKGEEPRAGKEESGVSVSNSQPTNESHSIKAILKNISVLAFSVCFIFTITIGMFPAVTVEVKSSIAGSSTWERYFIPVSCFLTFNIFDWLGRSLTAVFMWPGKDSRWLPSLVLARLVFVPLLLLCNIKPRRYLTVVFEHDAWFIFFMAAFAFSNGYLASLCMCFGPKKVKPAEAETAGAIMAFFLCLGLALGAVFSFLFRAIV

[7] = target: T3, es nucleoside transporter (Homo sapiens, UniProt Q99808); details: known from the art; cited from earlier work
T3 sequence (Q99808 1-456): T2 sequence (Q99808 1-456)

[8] = test system: T4, 5-HT receptor (3H-5-HT high and low affinity binding sites of murine brain membranes); test: Inhibition of 3H-5-HT binding to murine brain membranes; details: for IC50: 5 min pretreatment, 5 nM 3H-5-HT 30 min
T4 construct: other: 5 min pretreatment, 5 nM 3H-5-HT 30 min
Protocol: (§1) Purified murine brain membranes suspended in reaction buffer (0.13 M NaCl, 0.02 M NaHCO3, pH 7.0) were pretreated with graded concentrations of LBT3001 (▪), LBT3002 (□), LBT3004 (∘), and LBT3005 (●) for 5 min prior exposure to ^3H-5-HT (5 nM final concentration) for additional 30 min. The reaction was terminated by membrane vacuum filtration method. […] The results were plotted against control binding determined in the absence of inhibitors.

[9] = target: 5-HT receptor (3H-5-HT high and low affinity binding sites of murine brain membranes); test: as above; details: 5 min pretreatment, 5 nM 3H-5-HT 30 min
Protocol: as §1

[10] = target: T5, ei transport system in rat Morris 7777 cells (Rattus norvegicus, UniProt O54699); test: NEM inhibition of 3H-uridine transport in Morris 7777 cells (only ei)
T5 sequence (O54699 1-456): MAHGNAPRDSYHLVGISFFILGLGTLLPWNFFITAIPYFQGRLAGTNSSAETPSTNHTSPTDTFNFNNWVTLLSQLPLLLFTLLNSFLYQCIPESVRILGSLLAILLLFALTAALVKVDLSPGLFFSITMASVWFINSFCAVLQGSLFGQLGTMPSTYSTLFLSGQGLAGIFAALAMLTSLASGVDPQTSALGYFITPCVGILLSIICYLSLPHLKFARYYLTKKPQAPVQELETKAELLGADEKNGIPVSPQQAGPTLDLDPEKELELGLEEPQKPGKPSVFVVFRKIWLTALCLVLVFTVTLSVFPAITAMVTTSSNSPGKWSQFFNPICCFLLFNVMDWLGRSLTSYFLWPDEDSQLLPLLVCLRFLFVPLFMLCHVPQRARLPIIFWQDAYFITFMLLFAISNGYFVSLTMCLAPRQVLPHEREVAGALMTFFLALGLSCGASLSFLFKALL

[11] = target: T6, es transport system in murine EL-4 cells (Mus musculus, UniProt Q9JIM1); test: NEM inhibition of 3H-uridine transport in EL-4 cells (only es)
T6 sequence (Q9JIM1 1-460): T1 sequence (Q9JIM1 1-460)

[12] = 1 mM physiological nucleoside, 30 μM 3H-CrMCC

OCCN(CCO)c1nc(N2CCCCC2)c2nc(N(CCO)CCO)nc(N3CCCCC3)c2n1 [dipyridamole]
protection of sulfhydryl group from NEM modification ([1]; at 30 μM): incapable of protecting
inhibition of 3H-CrMCC binding ([2]; 20 μM es nucleoside transport inhibitor, 30 μM 3H-CrMCC): failed to inhibit

Nc1ccn([C@@H]2O[C@H](CO)[C@@H](O)[C@H]2O)c(=O)n1 [cytidine]
effect on HL-60 cell growth [3]: little or no effect
level of binding to HL-60 plasma membranes ([2]; 30 μM radioligand): low
displacement of 3H-CrMCC from its binding sites ([2]; 1 mM in the dilution medium): failed to displace
inhibition of 3H-CrMCC binding [2, 12]: failed to inhibit

1-[[4-[(4-amino-1-β-D-ribofuranosyl-2(1H)-pyrimidione)carbonyl]cyclohexyl]methyl]-1H-pyrrole-2,5-dione [CrMCC]
effect on HL-60 cell growth [3]: little or no effect
stability of activity on storage [4]: stable for at least three months
time needed to achieve maximum binding ([2]; 30 μM 3H-CrMCC): ≥ 5 min
dissociation from binding sites after 20-fold dilution ([2]; 30 μM radioligand 10 min, then 20-fold dilution, room temperature, up to at least 60 min): little or no dissociation
pH below which ligand-receptor complexes began to break down ([2]; buffers pH 0.85 to 7.5): below 3.5
stability of 3H-CrMCC-receptor complexes ([2]; physiological pH, 20-fold dilution in buffer): very stable
Kd ([2]; read-out: Kd of high affinity component, 3 to 800 μM 3H-CrMCC, 10 min): 23.8 ± 2.2 µM
hydrophobicity [5]: greater than that of cytidine but is less than that of SMCC
Bmax of 3H-NBMPR binding in presence of CrMCC ([6]; HL-60 membranes pretreated with 10 μM CrMCC 5 min): 0.59±0.01
Bmax of 3H-NBMPR binding in presence of CrMCC ([6]; HL-60 membranes pretreated with 50 μM CrMCC 5 min): 0.30±0.01
IC50 ([6]; HL-60 plasma membranes): 10 µM
Ki ([6]; HL-60 plasma membranes, read-out: Ki (calculated) for 3H-NBMPR binding): 1 µM
mode of inhibition of 3H-NBMPR binding ([6]; double reciprocal plot): non-competitive inhibition

COc1cc(C(=O)OCCCN2CCCN(CCCOC(=O)c3cc(OC)c(OC)c(OC)c3)CC2)cc(OC)c1OC [dilazep]
rate of binding of reversible antagonists [7]: rapid and mostly completed within first minute of incubation
protection of sulfhydryl group from NEM modification ([1]; at 30 μM): incapable of protecting

O=C(CCCN1C(=O)C=CC1=O)NCCc1c[nH]c2ccc(O)cc12 [LBT3002, 4-(2,5-dioxo-2,5-dihydro-pyrrol-1-yl)-N-[2-(5-hydroxyl-1H-indol-3-yl)-ethyl]-butyramide]
efficacy as irreversible binding compounds [8]: demonstrated efficacy as irreversible binding compounds
IC50 [8]: ~0.03 nM
IC50 [9]: ~200 µM

O=c1ccn([C@@H]2O[C@H](CO)[C@@H](O)[C@H]2O)c(=O)[nH]1 [uridine]
protection of sulfhydryl group from NEM modification ([1]; at 10 mM): incapable of protecting
inhibition of 3H-CrMCC binding [2, 12]: failed to inhibit

O=C(CCN1C(=O)C=CC1=O)NCCc1c[nH]c2ccc(O)cc12 [LBT3004, 3-(2,5-dioxo-2,5-dihydro-pyrrol-1-yl)-N-[2-(5-hydroxyl-1H-indol-3-yl)-ethyl]-propionamide]
efficacy as irreversible binding compounds [8]: demonstrated efficacy as irreversible binding compounds
IC50 [8]: ~200 nM
IC50 [9]: ~50 µM

O=C(NCCc1c[nH]c2ccc(O)cc12)C1CCC(CN2C(=O)C=CC2=O)CC1 (stereo not drawn) [LBT3005, 4-(2,5-dioxo-2,5-dihydro-pyrrol-1-yl-methyl)-cyclohexane carboxylic acid [2-(5-hydroxy-1H-indol-3-yl)-ethyl]-amide]
efficacy as irreversible binding compounds [8]: demonstrated efficacy as irreversible binding compounds
IC50 [8]: 500 nM
IC50 [9]: 300 µM

O=C1C=CC(=O)N1CCc1c[nH]c2ccc(O)cc12 [LBT3001, 1-[2-(5-hydroxy-1H-indol-3-yl)-ethyl]-pyrrole-2,5-dione]
efficacy as irreversible binding compounds [8]: demonstrated efficacy as irreversible binding compounds
IC50 [8]: ~1 nM
IC50 [9]: ~50 µM

CCN1C(=O)C=CC1=O [NEM, N-Ethylmaleimide]
IC50 [10]: ~1500 µM
IC50 [11]: ~100 µM
inhibition of 3H-CrMCC binding ([2]; 1 mM NEM, 30 μM 3H-CrMCC): as effective as 0.5 mM of CrMCC

O=C(ON1C(=O)CCC1=O)C1CCC(CN2C(=O)C=CC2=O)CC1 (stereo not drawn) [SMCC, N-Succinimidyl 4-[N-maleimidomethyl]cyclohexane-1-carboxylate, reference compound]
IC50 ([3]; read-out: IC50 on cell growth, HL-60 cells): < 0.5 µM
IC50 ([6]; HL-60 plasma membranes): 100 µM

Nc1ncnc2c1ncn2[C@@H]1O[C@H](CO)[C@@H](O)[C@H]1O [adenosine]
inhibition of 3H-CrMCC binding [2, 12]: failed to inhibit

OC[C@H]1O[C@@H](n2cnc3c(O)ncnc32)[C@H](O)[C@@H]1O [inosine]
inhibition of 3H-CrMCC binding [2, 12]: failed to inhibit
